Measured values taken from US7139415B2, “Robotic microscopy systems” (The Regents of the University of California, priority 2001, dated 2006).

Columns and labels:
[1] = tested on: neurons transfected with GFP; experiment: Automated imaging of survival of GFP-transfected neurons; type: cell-based; details: kainate added 24 or 76 hours after transfection, compared with untreated sister culture
Method: (§1) If the “loss” of GFP corresponded to the death of a neuron, that the loss of GFP positive neurons could be quantified over time as a measure of neuronal survival. To test whether the “loss” of GFP corresponded to the death of a neuron, the loss of GFP in transfected neurons was measured at the same time as the loss of membrane integrity using a membrane impermeant nuclear dye, ethidium homodimer (EtHD). EtHD staining of cell nuclei is taken as a positive sign of death in the widely used “LIVE-DEAD” assay.
Next, expression of the transfection marker GFP was tested for its affect on survival. FIG. 16E is a graph showing the results of a parallel experiment, in which the survival of transfected neurons in two sister cultures was compared. One culture was imaged once at the end of the experiment (hatched bar) and the other was imaged both a day after transfection and at the end of the experiment (solid bars). The two cultures show nearly identical survival. Finally, if this approach is a valid way to measure neuronal survival, it should be able to detect the effects of molecules known to regulate survival. First, the ability to detect the neurotoxicity of kainic acid was tested. […]
FIG. 16C is a graph showing survival of transfected neurons in three sister cultures was monitored and compared. […]

GFP transfected neurons = type: cell-based; details: in the presence of extracellular EtHD
Method: as §1
FIG. 16A is a panel of photographs exemplifying application of an automated imaging system to the study of neuronal survival, and showing that loss of GFP fluorescence correlates with a loss of membrane integrity and nuclear staining with ethidium homodimer. […] Between 60 (not shown) and 75 minutes, GFP fluorescence is abruptly lost from one neuron and its nucleus stains positively for EtHD. Later, the other transfected neuron in the image loses GFP fluorescence and stains positively for EtHD. […] Thus, overall, the GFP fluorescence of particular neurons disappeared eventually but abruptly, and at that same moment, the nuclei of those neurons stained positively with EtHD (FIG. 16A). Thus, the loss of GFP fluorescence correlated well with one widely accepted measure of cell death.

C=C(C)[C@H]1CN[C@H](C(=O)O)[C@H]1CC(=O)O [kainic acid]
neuronal survival (number of surviving GFP positive neurons) [1]: significant decrease in neuronal survival | morphology of GFP transfected neurons in response to the neurotoxin (GFP transfected neurons): cell bodies of GFP transfected neurons rounded and swelled and their neurites began to retract
